# Results published in patent US20220340665A1, “INHIBITOR AGAINST EXPRESSION OF IMMUNE CHECKPOINT MOLECULE” (RENASCIENCE INC., priority 2019, published 2022).
# “Also recorded” adds a separate entry of the source.
# Legend:
# [1] = system: cancer-associated fibroblasts (CAF); assay: Cancer-associated fibroblasts in MC38 tumor sections (Experimental Example 15); assay type: in vivo, mice (C57BL6); conditions: oral administration for one week, vs vehicle
# Text: 1) The untreated group and 3) the single-administration group of PAI-1 inhibitor (cancer-bearing mice) of Experimental Example 11, after tumor engraftment, were orally administered with physiological saline (vehicle) or the PAI-1 inhibitor for one week. Thereafter, the tumor was collected, fixed with paraformaldehyde, and then embedded in paraffin to prepare tissue sections. The tissue sections were stained with an anti-SMAcα antibody, and the percentage of cancer-associated fibroblasts (CAF) was observed under a microscope.
# [2] = system: mouse colorectal cancer cell line (MC38); assay: PD-L1 expression level by flow cytometry in MC38 cells (Experimental Example 3); assay type: cell-based; conditions: inhibitor 50 μM with rPAI-1 40 nM, 2 days, listed as PAI-1 inhibitor
# Method: Next, the PD-L1 expression level was determined by flow cytometry in the same manner as in Experimental Example 1.
# Likewise, a mouse colorectal cancer cell line (MC38) and a mouse malignant melanoma cell line (B16F10) were also tested in the same manner, instead of the mouse leukemia cell line (32Dp210).
# [3] = system: mouse leukemia cell line (32Dp210); assay: PD-L1 expression level by flow cytometry in 32Dp210 cells (Experimental Examples 2 and 3); assay type: cell-based; conditions: inhibitor 50 μM with rPAI-1 40 nM, 2 days, listed as PAI-1 inhibitor
# Text: In order to analyze the characteristics of cancer cells highly expressing PAI-1, a rouse leukemia cell line (obtained by transfecting 32D cells, i.e., a myelomonocytic progenitor cell line, with BCR-ABL; referred to below as “32Dp210”) was transfected with PAI-1 to produce cells overexpressing PAI-1 (32d PAI-1 OE). Next, in order to analyze the expression level of PD-L1, which is an ICM, in the cells, the cells were stained with an anti-PD-L1 antibody (clone name: 10F.G92) labeled with Allophycocyanin (APC) as a fluorescent dye, and subjected to flow cytometry. As a comparative control experiment, a 32Dp210 cell line without transfection of PAI-1 (wild-type cells: 32D WT) was analyzed in the same manner for the PD-L1 expression level.
# Specifically, artificially produced recombinant PAI-1 (referred to below as “rPAI-1”; 40 nM) or a culture supernatant of the cells overexpressing PAI-1 (32d PAI-1 OE) prepared in Experimental Example 1 (PAI-1 OE sup; containing a high concentration of PAI-1) was added to 5×10^4 cells of a mouse leukemia cell line (32Dp210), and the cells were cultured on a 96-well plate at 37° C., 5% CO2, for 2 days. Next, the PD-L1 expression level was determined by flow cytometry in the same manner as in Experimental Example 1. As a comparative control experiment, the PD-L1 expression level in untreated mouse leukemia cells (control) was measured in the same manner. […]
# [4] = system: mouse leukemia cell line (32Dp210); assay: PD-L1 mRNA expression by real-time PCR in 32Dp210 cells (Experimental Example 4); assay type: cell-based; conditions: inhibitor 50 μM with rPAI-1 40 nM or 100 nM, overnight, listed as PAI-1 inhibitor
# Method: The culture supernatant of the cells overexpressing PAI-1 (32D PAI-1 OE) prepared in Experimental Example 1 (PAI-1 OE sup) was added to a mouse leukemia cell line (32Dp210). In addition, those obtained by adding the PAI-1 inhibitor to a concentration of 50 μM, together with rPAI-1 (40 nM or 100 nM), were also prepared. Then, culturing was performed on a 96-well plate at 37° C., 5% CO2, overnight. The cells were collected, RNA was extracted using ISOGEN2 (Nippon Gene Co., Ltd.), and 100 ng of RNA was subjected to a reverse transcription reaction using a PrimeScript RT-PCR kit (Takara Bio Inc.) to obtain cDNA. The PD-L1 gene expression level was monitored by real-time PCR using TaqMan Fast Advanced Master Mix (Thermo Fisher Scientific). PD-L1 (Mm00452054_m1, Thermo Fisher Scientific) was used as the primer. To standardize the RNA amount, the expression level of 18S rRNA (Hs99999901_s1, Thermo Fisher Scientific) was also measured simultaneously. The PD-L1 gene expression level was determined using a comparative Ct method, which was shown in the graph as a ratio relative to the control group.
# [5] = system: regulatory T cells (Treg); assay: Regulatory T cells in MC38 tumor mass by flow cytometry (Experimental Example 14); assay type: in vivo, mice (C57BL6); conditions: oral administration for one week, vs vehicle
# Method: 1) The untreated group and 3) the single-administration group of PAI-1 inhibitor (cancer-bearing mice) of Experimental Example 11, after tumor engraftment, were orally administered with physiological saline (vehicle) or the PAI-1 inhibitor for one week. Thereafter, the tumors were collected, the cells were stained with an anti-CD45 antibody, an anti-CD4 antibody, an anti-CD25 antibody, and an anti-foxp3 antibody, and the percentage of regulatory T cells (Treg) in the tumor mass was analyzed with a flow cytometer.
# [6] = system: M2 macrophages (CD11b+CD206+); assay: PD-L1 expression in M2 macrophages from cultured mouse spleen cells (Experimental Example 6); assay type: cell-based; conditions: inhibitor 50 μM with rPAI-1 100 nM, 4 days; listed as PAI-1 inhibitor
# Method: Specifically, 5×10^6 mouse spleen cells were cultured on a 24-well plate at 37° C., 5% CO2, overnight. After floating cells were removed, rPAI-1 (100 nM) was added, and culturing was performed at 37° C., 5% CO2, for 4 days. After culture, adherent cells were collected by trypsin treatment and stained with an anti-CD11b antibody and an anti-CD206 antibody, in addition to an anti-PD-L1 antibody. Then, gating was performed on CD11b and CD206 double-positive (CD11b^+CD206^+) M2 macrophages, and the PD-L1 expression level thereof was determined with a flow cytometer. As a comparative control experiment, the PD-L1 expression level in untreated mouse spleen cells (control) was determined in the same manner. Further, the PAI-1 inhibitor (50 μM) was added to the same mouse spleen cells, together with rPAI-1 (100 nM), followed by culture under the same conditions as described above. Then, adherent cells were collected and the PD-L1 expression level was determined with a flow cytometer in the same manner.
# [7] = system: M2 macrophages (CD11b+CD206+); assay: PD-L1 expression in M2 macrophages of orally dosed mice (Experimental Example 7); assay type: in vivo, mice (C57BL6); conditions: peripheral blood; 10 mg/kg orally once daily, 7 days; vs vehicle
# Method: Mice (C57BL6) were orally administered with the PAI-1 inhibitor once daily at 10 mg/kg for a total of 7 days. On the next day of the final administration, the peripheral blood or the spleen was collected from the mice. The spleen was mechanically dispersed through nylon mesh. The peripheral blood and spleen cells were independently hemolyzed with an ammonium chloride solution, and the PD-L1 expression level in M2 macrophages (CD11b^+CD206^+) was determined with a flow cytometer. As a comparative control experiment, the peripheral blood or the spleen was collected in the same manner from a mouse group to which only physiological saline (vehicle) was administered to determine the PD-L1 expression level in M2 macrophages (CD11b^+CD206^+).
compound,measurement,setting,value
"O=C(Nc1ccc(Cl)cc1C(=O)[O-])c1cccc(-c2cccc3cccnc23)c1.[Na+] [Example 68, 5-chloro-2-(((3-(quinolin-8-yl)phenyl)carbonyl)amino)sodium benzoate]",percentage of intratumoral infiltration of cancer-associated fibroblasts,[1],reduced
same,PD-L1 expression induction by rPAI-1,[2],completely inhibited the induction; also recorded: the same results as those of the leukemia cells
same,PD-L1 expression induction by rPAI-1,[3],completely inhibited the induction; also recorded: completely suppressed
same,increase in PD-L1 mRNA expression by rPAI-1,[4],inhibited the induction of the expression; also recorded: suppressed
same,percentage of regulatory T cells in the tumor,[5],reduced
same,enhancement of PD-L1 expression by rPAI-1 in M2 macrophages,[6],completely suppressed
same,PD-L1 expression level in M2 macrophages,[7],reduction in the PD-L1 expression level
